Here are results for 6 compounds from patent publication US20230331707A1, “PROGRAMMED CELL NECROSIS INHIBITOR, PREPARATION METHOD THEREFOR, AND USE THEREOF” (Shanghai Institute of Organic Chemistry, Chinese Academy of …, priority 2020, published 2023).

One series relates to FADD−/− Jurkat cells. In words: Inhibition of TNF-induced programmed necrosis of FADD deficient Jurkat cells (Cell Titer-Glo viability). The series is classed as cell-based. Conditions: for EC50: Homo sapiens, Jurkat; for activity of inhibition of programmed necrosis compared with GSK2982772: human FADD-deficient Jurkat cells, TNFα alone or in combination with SM164. Summed up: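 FADD-deficient human Jurkat T leukemia cells in log phase were adjusted to 2.5×10^5/mL and plated at 40 μl per well in 384-well plates. Compounds were added, with SM164 (50 nM) where used, for a 1 h pretreatment at 37° C. TNFα (50 ng/mL) was then added, and cells were incubated 14 h at 37° C, 5% CO2. Viability was read as ATP luminescence with Cell Titer-Glo after 30 min at room temperature, with unstimulated DMSO wells set as 100%. EC50 values were calculated in Prism Graphpad.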

The next series concerns L929 cells. In words: Inhibition of TNF-induced programmed necrosis of L929 cells (Cell Titer-Glo viability). To be noted: for EC50: Mus musculus; for inhibition of programmed necrosis (in words): mouse-derived L929 cells. The series is classed as cell-based, mouse. Summed up:
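Mouse L929 fibroblasts were diluted to 6.25×10^4/ml, plated at 40 μl per well in 384-well plates, and incubated 12 hours at 37° C., 5% CO2. Compounds were added, with SM164 (500 nM) for the combination arm, and pretreated 1 h before TNFα (500 ng/mL). After 14 h, viability was read by Cell Titer-Glo luminescence against unstimulated DMSO controls, and EC50 values were fitted in Prism Graphpad.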
A general note: In ATP-based viability assays light output follows the ATP content of the culture.

For series [1], the system named is RIPK1^K612R/K612R mutant mice. In words: Digestive system inflammation in RIPK1 K612R/K612R mutant mice. The series is classed as in vivo. To be noted: gavage 25 mg/kg, control Nec-1s 50 mg/kg. The text has this:
The adopted biological test scheme was: RIPK1^K612R/K612R mutant mice were used as model mice to test the effect of representative compound QY-10-40 or QY-13-19 on spontaneous intestinal inflammation.
K612R mutation leads to decreased in intracellular RIPK1 level but abnormal activation, making it sensitive to programmed necrosis and caspase-1 activation, and responding to TLRs signaling. RIPK1^K612R/K612R mice will appear responses such as age-dependent reduced RIPK1 expression and abnormal activation, spontaneous intestinal inflammation and splenomegaly.
Methods: The compounds to be tested were dissolved in 0.5% carboxymethyl cellulose according to the required concentration one day in advance, and sonicated overnight. Mice were gavaged in a volume of 0.1 ml/10 g body weight. Body weight was measured three times a week, and samples were collected at the end of the experiment. The effect of the compounds was calculated using Prism Graphpad statistical software.

In series [2] the test system is MEFs cells expressing RIPK1 WT. Briefly: TSZ-induced programmed necrosis in MEFs cells expressing RIPK1 WT. It is filed as cell-based, mouse. An excerpt:
(§1) The adopted biological test protocol was: the effect of compounds on programmed necrosis in MEFs cells (mouse embryonic fibroblasts) with RIPK1 S161E mutation.
(§2) In order to verify the inhibitory effect of the compound of the present invention on the highly activated RIPK1 kinase at the cellular level, MEFs cells stably expressing RIPK1 S161E (simulating the activation state of RIPK1 after phosphorylation) were selected, TNFα-SM164-zVAD (Caspase inhibitor for inhibiting apoptosis) (TSZ) was used in combination to induce programmed cell necrosis, and cell viability was calculated by detecting chemiluminescence values, thereby obtaining the biological activity of the compound in inhibiting programmed necrosis.
(§3) Methods: MEFs cells replenished by RIPK1: WT-RIPK1, S161A-RIPK1 and S161E-RIPK1 were replenished in RIPK1 stable knockout cells respectively. After stable expression and being cultured to logarithmic growth phase, the cells were collected, and centrifuged at 1000 rpm for 5 min. The supernatant was discarded. Cell concentration was adjusted to 5×10^4/mL, and cells were inoculated into 384-well plates with 40 μL per well. Cell culture medium diluted SM164 (100 nM), zVAD (50 μM) and compound, each […], were added to the corresponding wells. After pretreatment at 37° C. for 1 h, 5 μL of cell culture medium diluted TNF (50 ng/mL) was added to each well in the stimulated group and 5 μL of culture medium was added to the control group. […] The unstimulated DMSO control wells (Ctrl) were taken as 100% cell viability. EC50 values of the compounds were calculated using Prism Graphpad statistical software.

In series [3] the test system is MEFs cells expressing RIPK1 S161E mutant. In words: TSZ-induced programmed necrosis in MEFs cells expressing RIPK1 S161E mutant. The series is classed as cell-based, mouse.
Description: as §1, §2, §3

Series [4] in a line: Liver microsomal stability test, human. To be noted: human, liver microsomes, human liver microsomes, NADPH, 37° C.; read-out: T1/2 (min) Human. It is filed as in vitro ADME. An excerpt: (§4) The adopted biological test protocol was: testing the half-life of the compound in human- or mouse-derived liver microsomes.
(§5) Liver microsomes contain many enzymes involved in drug metabolism, especially cytochrome P-450, and therefore it is one of the major tissues involved in drug metabolism in living organisms. There are some correlations between the stability of the compound in liver microsomes and the pharmacogenetic stability thereof in vivo. Therefore, the relative stability of compounds in vivo can be roughly predicted by testing the half-life of different compounds in human- or mouse-derived liver microsomes. The specific methods were as follows:
(§6) Methods: 0.75 μL of 0.5 mM samples (compounds to be tested and control verapamil), 9.38 μL of 20 mg/mL liver microsomes (Human and Mouse) were taken and added to 239.88 μL PBS (on ice), and divided into 30 μL/tube samples respectively. The samples were incubated at 37° C. in a constant temperature water bath for 5 min, and then all samples were taken out. At zero-time, control group was added with 90 μL of ice acetonitrile first, and then added with 15 μL of 3 mM NADPH solution sequentially, and incubated at 37° C. in a constant temperature water bath. The corresponding samples were taken out after 5 min, 10 min, 20 min, 30 min and 60 min, respectively, and quenched by adding 90 μL of ice acetonitrile. All samples were centrifuged at 10000 rpm for 10 min, and the supernatants were taken and placed in a liquid phase vial waiting for LC-MS analysis.

Series [5] is described as follows: Liver microsomal stability test, mouse. Conditions: mouse, liver microsomes, mouse liver microsomes, NADPH, 37° C.; read-out: T1/2 (min) Mouse. The series is classed as in vitro ADME.
Description: as §4, §5, §6
In general terms: Microsomes from liver hold many membrane-bound enzymes, among them those of drug oxidation.

The mark [6] stands for this setting: 14 h, FADD−/− Jurkat cells, stimulated with TNFα + SM164, read-out: EC50 (μM) FADD−/− Jurkat cells (human) TNFα + SM164.
Setting [7] is: FADD−/− Jurkat cells, stimulated with TNFα alone, read-out: EC50 (μM) FADD−/− Jurkat cells (human) TNFα.
[8] abbreviates: L929, L929 cells, stimulated with TNFα + SM164, read-out: EC50 (μM) L929 cells (mouse) TNFα + SM164.
[9] abbreviates: L929, L929 cells, stimulated with TNFα alone, read-out: EC50 (μM) L929 cells (mouse) TNFα.

Read-outs that look alike come from different tables or passages of the source.

For the compound `Cn1nnc(C(=O)NCc2ccc(-n3cnc4c(N)ncnc43)cc2)c1Cc1ccccc1` [QY-13-19, N-(4-(6-amino-9H-purin-9-yl)benzyl)-5-benzyl-1-methyl-1H-1,2,3-triazole-4-carboxamide], the EC50 turned out to be 0.516 nM in the series on FADD−/− Jurkat cells (setting [6]), 0.0557 nM with FADD−/− Jurkat cells (setting [7]), 3.09 nM with L929 cells (setting [8]) and 1.46 nM with L929 cells (setting [9]). The “activity of inhibition of programmed necrosis compared with GSK2982772” value with FADD−/− Jurkat cells is on record as “stronger activity”. In series [1], the “effect on body weight and spleen coefficient” value is reported as “can inhibit the effect of the digestive system inflammation”.

Consider `COc1cc2ncn(-c3ccc(CNC(=O)c4cnn(C)c4Cc4ccccc4)cc3)c2cc1OC` [QY-11-76], for which the EC50 stood at 0.05 nM in the series with FADD−/− Jurkat cells (setting [6]), 0.0243 nM in the series on FADD−/− Jurkat cells (setting [7]), 0.432 nM in the series with L929 cells (setting [8]) and 0.0598 nM with L929 cells (setting [9]). Moreover, the “activity of inhibition of programmed necrosis compared with GSK2982772” value in the series on FADD−/− Jurkat cells is “stronger activity”. In addition, in the series on L929 cells, the “inhibition of programmed necrosis (in words)” value is reported as “excellently inhibit the occurrence of programmed necrosis”. Besides, the “inhibition of programmed necrosis” value in series [2] (600 nM) was “can effectively inhibit the occurrence of programmed necrosis”; in series [3] (600 nM), “can significantly inhibit occurrence of programmed necrosis”.

As to `CN1C(=O)[C@@H](NC(=O)c2n[nH]c(Cc3ccccc3)n2)COc2ccccc21` [GSK2982772, reference compound], the EC50 with FADD−/− Jurkat cells (setting [6]) is 4 nM; in the series with FADD−/− Jurkat cells (read-out: EC50 (μM) FADD−/− Jurkat cells (human) TNFα), 0.68 nM; in the series with L929 cells (setting [8]), above 10000 nM; in the series on L929 cells (setting [9]), 2510 nM. Besides, the “inhibition of programmed necrosis (in words)” value in the series on L929 cells was “almost inactive”. The “inhibition of programmed necrosis” value was “can effectively inhibit the occurrence of programmed necrosis” in series [2] (10 μM) and “only shows weak inhibition” in series [3] (10 μM).

For `Cn1ncc(C(=O)NCc2ccc(-n3cnc4c(N)nccc43)cc2)c1Cc1ccccc1` [QY-11-77], the EC50 worked out at 0.838 nM in the series with FADD−/− Jurkat cells (setting [6]), 0.012 nM with FADD−/− Jurkat cells (setting [7]), 0.63 nM in the series with L929 cells (setting [8]) and 1.17 nM in the series on L929 cells (setting [9]). The “inhibition of programmed necrosis” value in series [2] (600 nM) is listed as “can effectively inhibit the occurrence of programmed necrosis”; in series [3] (600 nM) it was “can significantly inhibit occurrence of programmed necrosis”.

For the compound `CN1C(=O)N[C@H](Cc2c[nH]c3c(Cl)cccc23)C1=O` [Nec-1s, reference compound], the EC50 came to 900 nM in the series with FADD−/− Jurkat cells (setting [6]); 228 nM in the series on FADD−/− Jurkat cells (setting [7]); 443 nM with L929 cells (L929, read-out: EC50 (μM) L929 cells (mouse) TNFα). In addition, the “inhibition of programmed necrosis” value in series [2] (10 μM) was “can effectively inhibit the occurrence of programmed necrosis”; in series [3] (10 μM), “does not exhibit inhibition”.

In the case of `CCn1nc(C(=O)NCc2ccc(-n3cnc4cc(C(=O)NC)ccc43)cc2)cc1Cc1ccccc1` [XHJ-4-36], the EC50 with FADD−/− Jurkat cells (setting [6]) is 42.8 nM; in the series on FADD−/− Jurkat cells (setting [7]), 5.91 nM; with L929 cells (setting [8]), above 10000 nM; with L929 cells (setting [9]) it was 10.7 nM. Also, the half-life at 1 µM in series [4] came to 46.2 min; in series [5] it was 10.7 min.
